Experimental data: PMC10135567, “New Indole-3-Propionic Acid and 5-Methoxy-Indole Carboxylic Acid Derived Hydrazone Hybrids as Multifunctional Neuroprotectors” (Antioxidants, 2023)

Legend:
[1] = MTT cell viability assay (cytotoxicity), SH-SY5Y; details: human, SH-SY5Y neuroblastoma cells
Procedure: Neuroblastoma cell line SH-SY5Y (94030304) was acquired from the European Collection of Cell Cultures (ECACC, Salisbury, UK). Cells were cultured in a medium prepared with RPMI basic media supplemented with 10% heat-inactivated FBS (fetal bovine serum), 2 mM L-glutamine, 1% antibiotics (penicillin/streptomycin), and incubated at 37 °C in a humidified atmosphere containing 5% of CO2. The culture’s medium was replaced at a time interval of 2–3 days.
(§1) Cell viability was assessed via the mitochondrial reductase-dependent reaction of (3-(4,5-dimethylthiazol-2-yl)- 2,5-diphenyl tetrazolium bromide (MTT, cat. no. 475989, Calbiochem, Merck KGaA, Darmstadt, Germany). The SH-SY5Y and bEnd3 cell lines were seeded in 96-well plates at a density of 0.7 × 10^4 (bEnd3) or 2 × 10^4 (SH-SY5Y) cells/well and allowed to adhere for 24 h at 37 °C, 5% CO2. Then, the cells were incubated with the compounds (1–500 μM) for a preset time (24 h). For the solvent, the control cells were treated with DMSO corresponding to the highest concentration of DMSO in the samples (0.5% DMSO) in order to exclude its cytotoxic effect on the cells. For each concentration, a set of at least 6 wells were used. After incubation, the solution from each well was exchanged with fresh culture medium (100 µL/well), containing the MTT reagent (0.5 mg/mL) and incubated for 3 h at 37 °C in a humidified atmosphere and 5% CO2. The obtained formazan crystals were dissolved in 100 µL/well of 5% formic acid in propan-2-ol solution (or DMSO). The absorbance was measured at 570 nm via multiplate reader Tecan Infinite F200 PRO (Tecan Trading AG., Männedorf, Switzerland) or Synergy 2 (BioTek Instruments, Inc., Highland Park, Winooski, VT, USA).
(§2) Both the SH-SY5Y and bEnd3 cells were treated with the test compounds in a concentration range from 1 to 500 µM for 24 h.

[2] = MTT cell viability assay (cytotoxicity), bEnd3; assay type: cell-based, mouse; details: mouse, bEnd3 brain endothelial cells, 1–500 µM
Procedure: Mouse-brain endothelial cell line bEnd3 [36] (CRL-2299) was purchased from the American Type Culture Collection (ATCC, Manassas, VA, USA). The cells were cultured in DMEM (Dulbeco’s modified essential medium) (cat. no. 30-2002, ATCC, Manassas, VA, USA), supplemented with 10% heat-inactivated FBS (cat. no. F7524, Sigma-Aldrich Co. LLC, St. Louis, MO, USA), 1 mM L-glutamine (cat. no. G7513, Sigma-Aldrich Co. LLC, St. Louis, MO, USA) and 1× Antibiotic-Antimycotic solution (penicillin: streptomycin: amphotericin B (100 U/mL: 0.10 mg/mL: 0.25 µg/mL) (cat. no. A5955, Sigma-Aldrich Co. LLC, St. Louis, MO, USA) at 37 °C in a humidified atmosphere containing 5% CO2. The cells were passaged in 75 cm^2 flasks every 3–5 days via trypsinization (StableCell Trypsin solution, cat. no. T2610, Sigma-Aldrich Co. LLC, St. Louis, MO, USA).
as §1, §2

[3] = system: isolated rat-brain synaptosomes; assay: 6-OHDA-induced neurotoxicity in isolated rat synaptosomes, synaptosomal viability; assay type: cell-based; details: Rattus norvegicus; 10 µM pre-incubation 30 min, then 150 µM 6-OHDA 1 h; read-out: synaptosomal viability (SV) preserved, as compared to 6-OHDA
Procedure: (§3) This neurotoxicity model was based on the metabolism and auto-oxidation of 6-hydroxy dopamine responsible for the reactive oxygen species and quinones generation, ultimately leading to neurotoxicity and neurodegeneration. The experiment was performed by pre-incubation of the synaptosomes with 10 µM of the compounds for 30 min, followed by the addition of 150 µM 6-hydroxy dopamine for induction of neurotoxicity. After 1 h, they were centrifuged twice for 1 min at 15,000 × g. After the second wash, the precipitates were resolved with buffer B and glucose.

[4] = Fe(II)-induced lipid peroxidation assay (LP assay, TBARS); assay type: biochemical; details: 90 µM, lecithin 1 mg/mL, 0.1 mM FeCl2; lower = stronger antioxidant
Procedure: (§4) The lipid peroxidation assay and a modification of the deoxyribose-degradation assay were used. Two types of measurement compositions in phosphate buffer (PB–K2HPO4/KH2PO4, pH 7.4) were prepared for both tests: (i) samples, containing the biologically relevant molecules (lecithin emulsion or deoxyribose), iron, and the tested hydrazones at the concentrations indicated below the figures; and (ii) controls, in which the tested hydrazones were omitted. The data for the sample activity were presented as a percentage of the control measurement.
The thiobarbituric-acid reactive-substance colorimetric test was performed in a model system of Fe(II)-induced lipid peroxidation as an emulsion prepared from egg yolk phospholipids. Each sample contained 1 mg/mL of lecithin. LP was initiated using 0.1 mM FeCl2. After 30 min incubation at 37 °C, 0.5 mL of 2.8% trichloroacetic acid solution and 0.5 mL of 0.5% thiobarbituric acid solution were added, following a second incubation at 100 °C for 20 min. Centrifugation at 3000 rpm for 20 min at 4 °C was performed, and we determined the absorbance value of the supernatant at 532 nm via Shimadzu UV-1601 UV-VIS spectrophotometer.

[5] = Fe(II)-induced deoxyribose degradation assay; assay type: biochemical; details: 80 µM, 2-deoxyribose 0.5 mM, 0.1 mM FeCl2; lower = stronger antioxidant
Procedure: as §4
The deoxyribose (0.5 mM) damage was induced by adding FeCl2 (0.1 mM). The measurement compositions were incubated at 37 °C for 30 min. The next step comprised adding 0.5 mL of 2.8% trichloroacetic acid and 0.5 mL of thiobarbituric acid. Then, the samples were heated in boiling water for 20 min, and their absorbance was estimated at 532 nm (characteristic band for the generated chromophore) via Shimadzu UV-1601 UV-vis spectrophotometer.

[6] = O-phenanthroline Fe(II) chelation test; assay type: physicochemical; details: 200 µM compound, FeCl2
Procedure: The Fe (II)-chelating activity of the tested hydrazones was determined by the O-phenanthroline method. A total of 1 mL sample solutions of 50 mM PB pH 7 contained 0.2 mM O-phenanthroline and 0.05 mM FeCl2 and 0.2 mM hydrazone. In the controls, the tested compounds were omitted. Absorbance was measured at 515 nm via GENESYS 50 UV-VIS spectrophotometer after incubation for 5 min at 37 °C. The data for the sample activity were presented as a percentage of the control measurement. Absorbance spectra of all the samples, the control, and the measurement compositions containing the tested hydrazones and Fe(II) at the concentrations used in the samples were measured.
To explain the results of both systems of Fe(II)-induced oxidative damage, we studied the potency of the tested compounds to chelate-iron (Fe(II)). This was studied by spectrophotometric determination of free iron (Fe(II)) using the ortho-phenanthroline test, as 1,10-phenantroline reacts rapidly with Fe(II) ions in weakly acidic media, generating an orange–red complex (ferroin) with characteristic absorbance spectra (molar absorptivity 1.10.104 (α = 0.20) at ~max 512 nm and a molar ratio 3:1 (R: Fe(II))). The generated complex was stable, and the bound Fe(II) was resistant to oxidation. Lower absorbance of the reaction mixture indicated higher Fe^2+-chelating activity.

[7] = Superoxide radical scavenging, xanthine/xanthine oxidase/NBT system; assay type: biochemical
Procedure: The 1 mL cuvette for the control contained 1 mM xanthine, 20 µL xanthine oxidase (100 IU/L), and 0.04 mM NBT [43, 44]. In the sample compositions, the tested hydrazones at different concentrations were added. All measurement compositions were incubated at 37 °C, and the absorbance was determined spectrophotometrically at 560 nm via Shimadzu UV-1601 UV-vis spectrophotometer.
The potential capability of the investigated compounds to prevent the superoxide-anion radical-induced NBT reduction was investigated spectrophotometrically by xanthine-oxidase assay. The assay was carried out at the final concentration of the tested compounds, at 1, 10, 50, and 100 µM.

[8] = Stability by UV-vis measurements at different pH; assay type: physicochemical; details: 50 µM, pH 2, 4.5, 7.4 and 8.4, after 1, 2, 3 and 24 h
Procedure: The stability of the compounds was also considered a potential issue. Therefore, selected compounds (3a, 3d, 5d, and 5e at a concentration of 50 µM) were studied by UV-vis measurements under different pH conditions, including pH 2, 4.5, 7.4, and 8.4, to represent different physiological (gastric, intestinal, etc.) conditions.

[9] = system: isolated rat-brain synaptosomes; assay: Synaptosomal viability (MTT), substances administered alone; details: 100 µM
Procedure: Preparation of the synaptosomes was carried out by multiple centrifugations using the Percoll gradient. Homogenization of the brains was performed in 10 volumes of cold buffer 1, which contained 5 mM HEPES and 0.32 M sucrose (pH = 7.4), followed by centrifugation at different speeds. For preparation of the gradient, the synaptosomes were isolated by Percoll reagent. Synaptosomes were resuspended and incubated in buffer 2, which contained 290 mM NaCl, 0.95 mM MgCl2x6H2O, 10 mM KCl, 2.4 mM CaCl2xH2O, 2.1 mM NaH2PO4, 44 mM HEPES, and 13 mM D-glucose. Incubations were performed in a 5% CO2 + 95% O2 atmosphere. The method of Lowry et al., using bovine serum albumin as a standard content, was applied for determination of synaptosomal protein [51].
Synaptosomal viability was monitored based on a (3-(4,5)-dimethylthiazol-2-yl)-2,5-diphenyl tetrazolium bromide) assay. After incubation with the compounds, synaptosomes were treated with 0.5 mg/mL solution of (3-(4,5)-dimethylthiazol-2-yl)-2,5-diphenyl tetrazolium bromide) for 10 min at […]. Then, the synaptosomes were centrifuged twice at 15,000× g for 1 min. The resulting formazan crystals were dissolved in DMSO (dimethyl sulfoxide), and the extinction was determined by spectrophotometric measurements at 580–660 nm. […]

[10] = system: isolated rat-brain synaptosomes; assay: 6-OHDA-induced neurotoxicity in isolated rat synaptosomes, GSH level; assay type: cell-based; details: 10 µM pre-incubation 30 min, then 150 µM 6-OHDA 1 h
Procedure: as §3

[11] = target: T1, recombinant human MAO-B (hMAO-B) (Homo sapiens, UniProt P27338); assay: hMAO-B enzyme activity inhibition (Amplex Red fluorimetric assay); assay type: biochemical; details: 1 µM
T1 sequence (P27338 1-520): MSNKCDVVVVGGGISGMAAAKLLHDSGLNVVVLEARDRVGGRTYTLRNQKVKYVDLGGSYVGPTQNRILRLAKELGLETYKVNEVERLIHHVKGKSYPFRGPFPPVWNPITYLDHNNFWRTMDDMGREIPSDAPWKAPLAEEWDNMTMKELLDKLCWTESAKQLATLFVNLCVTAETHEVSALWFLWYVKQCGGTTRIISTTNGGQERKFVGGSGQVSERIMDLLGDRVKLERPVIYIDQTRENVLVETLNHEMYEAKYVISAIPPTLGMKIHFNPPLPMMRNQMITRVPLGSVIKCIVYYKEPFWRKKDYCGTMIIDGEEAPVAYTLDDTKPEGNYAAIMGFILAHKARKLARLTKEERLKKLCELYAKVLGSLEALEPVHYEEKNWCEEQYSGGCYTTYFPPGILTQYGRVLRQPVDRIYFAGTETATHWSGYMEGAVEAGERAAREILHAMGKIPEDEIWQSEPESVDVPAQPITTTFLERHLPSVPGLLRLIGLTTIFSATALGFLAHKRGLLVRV
Procedure: Amplex® UltraRed reagent [48] was used for detection of the hydrogen peroxide and peroxidase activity in biological samples and enzymes. In the presence of peroxidase, a red phosphorescent oxidation product, resorufin, was produced due to the 1:1 stoichiometric reaction of Amplex® Red with hydrogen peroxide. The analysis was conducted spectrophotometrically based on the high extinction coefficient of the color product. Using this method, small amounts of hydrogen peroxide (of the order of 10 pM in a volume of 100 µL) could be detected.
The following controls were used: pure MAO-B working solution in reaction buffer, MAO-B working solution containing hydrogen peroxide, and pure reaction buffer. The final concentration of the substances was 1 µM. […] At the end of the incubation period, the reaction was started by adding a 50 µL of a mix solution containing solutions of Amplex® Red reagent, horseradish peroxidase (HRP), and tyramine as a substrate for the enzyme in a reaction buffer, to each well on the 96-well plate.

red blood cells = assay: Red blood cell hemolysis assay; assay type: cell-based, rat; details: positive control, 20% Triton X-100, 1 h, 37 °C
Procedure: The potential of the test compounds to induce hemolysis was evaluated following the protocol described by Evans et al.. The blood was collected from the heart of male Wister rats. The red blood cells were separated from the blood by repeated centrifugation in 0.9% NaCl buffer and were resuspended in phosphate-buffered saline (PBS, pH 7.4). The test compounds in concentrations 10, 100, and 200 µM, a negative control (distilled water), and a positive control (20% Triton X-100) were pipetted into 96-well plates. Then, the erythrocyte suspension in PBS was added, and the plates were incubated for 1 h at 37 °C. After centrifugation (5 min at 500× g), the supernatant was transferred to new 96-well plates in order to measure hemoglobin absorbance at 430 nm on a Synergy 2 plate-reader (BioTek Instruments, Inc., Highland Park, Winooski, VT, USA). The obtained results were presented as a percentage of hemolysis relative to the hemoglobin absorbance values in the positive controls. Hemoglobin absorbance of negative controls was accepted as zero hemolysis. […]
Hemolysis assay, using red blood cells, is an essential part of the in vitro biocompatibility testing of new drug substances; and it was used as a screening method for the evaluation of potential in vivo toxicity. The release of hemoglobin was a definite sign of the cell lysis of the erythrocytes and could be measured spectrophotometrically. […]

| Molecule | IC50 at 24 h [1] | IC50 at 24 h [2] | viability at 10 µM [3] | absorbance ratio sample/control (lipid peroxidation) [4] | absorbance ratio, % of the controls (deoxyribose degradation) [5] | absorbance at 515 nm compared to the controls (Fe(II) chelation) [6] | decrease of NBT reduction as compared to the controls ([7]; 100 µM (highest tested concentration)) | stability (UV-vis spectra over time) [8] | melting point | reduction of synaptosomal viability (SV) vs. non-treated synaptosomes [9] | GSH level preserved, as compared to 6-OHDA [10] | absorbance ratio (NBT reduction, % of control) ([7]; 1, 10, 50 and 100 µM) | reduction of hMAO-B enzyme activity vs. pure hMAO-B [11] | hemolysis (red blood cells) |
| --- | --- | --- | --- | --- | --- | --- | --- | --- | --- | --- | --- | --- | --- | --- |
| O=C(CCc1c[nH]c2ccccc12)NN=Cc1cccc(O)c1O [Compound 3a, N′-(2,3-Dihydroxybenzylidene)-3-(1H-indol-3-yl)propanehydrazide] | 120 µM | 356 µM | 44% | around 30% | around 35% | identical absorbance values, as compared to the controls | less than 15% | stable over time | 204 to 205 °C |  |  |  |  |  |
| O=C(O)CCc1c[nH]c2ccccc12 [IPA, Indole-3-propionic acid] | > 500 µM |  | 56% | further amelioration of the antioxidant properties was not observed, as compared to melatonin |  | statistically identical absorbance values at 515 nm, as compared to the controls |  |  |  | 47% | 50% | did not influence the estimated absorbance ratio at any of the tested concentrations | 25% |  |
| Triton X-100 |  |  |  |  |  |  |  |  |  |  |  |  |  | 100% |
